Experimental data published in patent publication US20250066343A1, “NOVEL CANNAB[…] DERIVATIVE, PREPARATION METHOD THEREFOR, AND COMPOSITION COMPRISING SAME FOR IMPROVING COGNITIVE FUNCTION” (priority 2021, published 2025).

Legend:
Format in all cases: biochemical
[1] = biological target: T1, Monoamine oxidase B (MAO-B) (Homo sapiens, UniProt P27338); experiment: Monoamine oxidase B inhibitory efficacy (kynuramine fluorescence assay); settings: compound 0-200 μM; enzyme 2 mU/mL; kynuramine substrate; N.D. = Not Detected
T1 sequence (P27338 1-520): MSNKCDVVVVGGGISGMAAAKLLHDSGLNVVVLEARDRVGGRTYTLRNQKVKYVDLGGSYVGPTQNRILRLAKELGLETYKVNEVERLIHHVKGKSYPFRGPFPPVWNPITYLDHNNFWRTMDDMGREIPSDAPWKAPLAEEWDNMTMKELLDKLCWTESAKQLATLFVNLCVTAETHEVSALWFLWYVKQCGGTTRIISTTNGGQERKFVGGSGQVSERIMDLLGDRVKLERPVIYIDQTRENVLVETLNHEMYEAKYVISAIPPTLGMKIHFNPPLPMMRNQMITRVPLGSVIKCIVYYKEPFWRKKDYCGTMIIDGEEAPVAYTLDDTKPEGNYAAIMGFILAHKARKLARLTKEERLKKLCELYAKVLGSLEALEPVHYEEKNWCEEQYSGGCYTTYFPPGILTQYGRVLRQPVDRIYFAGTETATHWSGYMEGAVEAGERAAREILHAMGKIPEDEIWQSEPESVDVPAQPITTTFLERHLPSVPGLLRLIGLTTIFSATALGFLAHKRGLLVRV
Experimental: Samples were prepared by dilution with DMSO to give concentrations of 0, 2, 5, 10, 20, 50, 100, and 200 μM of the compound, and 5 μl was dispensed into a 96-well plate. 135 μl of potassium phosphate buffer (0.1 M, 7.4 pH) was dispensed into a 96-well plate. Monoamine oxidase B was prepared at 2 mU/mL, and 50 μl was added to the 96-well plate, mixed with the dispensed compound, and left for 20 minutes. The substrate, kynuramine solution, was prepared at 100 μM, then 10 μl was added to a 96-well plate and left for 10 min. The reaction was stopped by adding 75 μl of NaOH (2N). The enzyme activity was calculated by measuring the concentration of kynuramine degraded by the enzyme using a fluorometer under 310 nm (excitation)/380 nm (emission) conditions. For the fluorescence blank experiment, potassium phosphate buffer was added instead of monoamine oxidase B to correct the compound-induced fluorescence intensity values.

[2] = biological target: Acetylcholinesterase (AChE) (Homo sapiens, UniProt P22303); experiment: Acetylcholinesterase inhibitory efficacy (acetylthiocholine/DTNB absorbance assay)
Acetylcholinesterase (AChE), sequence (P22303 32-614, species assumed): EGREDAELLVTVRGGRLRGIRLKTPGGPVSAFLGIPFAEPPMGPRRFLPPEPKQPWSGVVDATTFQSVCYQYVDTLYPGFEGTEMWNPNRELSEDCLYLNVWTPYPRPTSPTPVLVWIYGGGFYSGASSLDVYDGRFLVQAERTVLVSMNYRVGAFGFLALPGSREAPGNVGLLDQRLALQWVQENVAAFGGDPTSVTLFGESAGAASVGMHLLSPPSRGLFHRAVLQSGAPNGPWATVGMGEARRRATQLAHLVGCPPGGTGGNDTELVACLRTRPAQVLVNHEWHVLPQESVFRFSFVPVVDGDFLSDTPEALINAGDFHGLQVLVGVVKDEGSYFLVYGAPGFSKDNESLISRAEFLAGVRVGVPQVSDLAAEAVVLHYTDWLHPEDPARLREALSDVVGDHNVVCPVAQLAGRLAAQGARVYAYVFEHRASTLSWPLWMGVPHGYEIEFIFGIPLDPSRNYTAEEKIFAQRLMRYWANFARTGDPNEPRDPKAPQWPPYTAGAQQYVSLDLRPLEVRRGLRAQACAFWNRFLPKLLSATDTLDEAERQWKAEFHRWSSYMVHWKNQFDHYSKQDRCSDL
Experimental: (§1) Acetylcholinesterase or butyrylcholinesterase was prepared at 50 mU/ml, 50 μl was added to a 96-well plate, mixed with the aliquoted compound, and left for 10 minutes. The substrate, acetylthiocoline 0.05 mg/mL or butyrylthiocoline 0.1 mg/ml, was prepared and 50 μl was added to a 96-well plate and left for 10 minutes. Dithionitrobenzoic acid (DTNB) was prepared at 0.3 mg/ml, then 50 μl was added to a 96-well plate and left for 10 minutes.

[3] = biological target: Butyrylcholinesterase (BuChE) (Homo sapiens, UniProt P06276); experiment: Butyrylcholinesterase inhibitory efficacy (butyrylthiocholine/DTNB absorbance assay); settings: compound 0-200 μM; enzyme 50 mU/ml; N.D. = Not Detected
Butyrylcholinesterase (BuChE), sequence (P06276 29-602): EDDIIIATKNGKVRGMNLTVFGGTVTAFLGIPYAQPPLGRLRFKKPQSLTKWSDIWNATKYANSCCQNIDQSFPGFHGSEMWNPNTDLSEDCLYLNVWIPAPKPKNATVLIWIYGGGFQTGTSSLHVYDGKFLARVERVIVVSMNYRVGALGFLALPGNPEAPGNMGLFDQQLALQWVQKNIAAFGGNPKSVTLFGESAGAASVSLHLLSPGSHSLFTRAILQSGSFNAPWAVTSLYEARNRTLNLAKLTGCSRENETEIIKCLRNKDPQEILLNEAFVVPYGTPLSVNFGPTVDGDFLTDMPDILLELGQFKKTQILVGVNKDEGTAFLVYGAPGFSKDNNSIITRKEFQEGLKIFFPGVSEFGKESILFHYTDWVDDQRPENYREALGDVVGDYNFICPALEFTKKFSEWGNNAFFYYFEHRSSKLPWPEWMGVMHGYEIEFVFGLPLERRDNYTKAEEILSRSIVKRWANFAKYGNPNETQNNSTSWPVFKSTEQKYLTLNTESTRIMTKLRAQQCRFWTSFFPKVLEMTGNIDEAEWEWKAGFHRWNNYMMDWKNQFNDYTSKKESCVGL
Experimental: as §1

SMILES | IC50 [1] | IC50 [2] | IC50 [3]
CCCCCc1cc2c(c(O)c1C(=O)NC1Cc3ccccc3C1)C=CC(C)(CCC=C(C)C)O2 (centres unmarked) [Compound 4aa, N-(2,3-dihydro-1H-inden-2-yl)-5-hydroxy-2-methyl-2-(4-methylpent-3-en-1-yl)-7-pentyl-2H-chromene-6-carboxamide] | 100 µM | 2 µM | 164 µM
CCCCCc1cc2c(c(O)c1C(=O)N1CCN(CCO)CC1)C=CC(C)(CCC=C(C)C)O2 (centres unmarked) [Compound 4ae, (5-hydroxy-2-methyl-2-(4-methylpent-3-en-1-yl)-7-pentyl-2H-chromen-6-yl)(4-(2-hydroxyethyl)piperazin-1-yl)methanone] | 55.8 µM | < 0.5 µM | 72.3 µM
CCCCCc1cc2c(c(O)c1C(=O)Nc1ccccc1)C=CC(C)(CCC=C(C)C)O2 (centres unmarked) [Compound 4b, 5-hydroxy-2-methyl-2-(4-methylpent-3-en-1-yl)-7-pentyl-N-phenyl-2H-chromene-6-carboxamide] | 176 µM | 0.4 µM | 94.6 µM
CCCCCc1cc2c(c(O)c1C(=O)NC1CCN(C)CC1)C=CC(C)(CCC=C(C)C)O2 (centres unmarked) [Compound 4q, 5-hydroxy-2-methyl-2-(4-methylpent-3-en-1-yl)-N-(1-methylpiperidin-4-yl)-7-pentyl-2H-chromene-6-carboxamide] | 131 µM |  | 6.2 µM
CCCCCc1cc2c(c(O)c1C(=O)NN1CCCCC1)C=CC(C)(CCC=C(C)C)O2 (centres unmarked) [Compound 4z, 5-hydroxy-2-methyl-2-(4-methylpent-3-en-1-yl)-7-pentyl-N-(piperidin-1-yl)-2H-chromene-6-carboxamide] | 156 µM | 29 µM | 1.3 µM
